ChEMBL document CHEMBL4507329, “Data for DCP probe BTZO-1” (2021)

How the values were obtained:
[1] = test system: Tyrosine-protein kinase ABL1 (Homo sapiens), P00519 [F317I]; details: Compound concentration 1000.0 nM
[2] = biological target: Tyrosine-protein kinase ABL1 (Homo sapiens) (UniProt P00519); details: Compound concentration 1000.0 nM
[3] = biological target: Activin receptor type-1B (Homo sapiens) (UniProt P36896); details: Compound concentration 1000.0 nM
[4] = biological target: Bone morphogenetic protein receptor type-1A (Homo sapiens) (UniProt P36894); details: Compound concentration 1000.0 nM
[5] = biological target: Cytoplasmic tyrosine-protein kinase BMX (Homo sapiens) (UniProt P51813); details: Compound concentration 1000.0 nM
[6] = biological target: Serine/threonine-protein kinase BRSK1 (Homo sapiens) (UniProt Q8TDC3); details: Compound concentration 1000.0 nM
[7] = biological target: Serine/threonine-protein kinase MRCK gamma (Homo sapiens) (UniProt Q6DT37); details: Compound concentration 1000.0 nM
[8] = biological target: Serine/threonine-protein kinase 17A (Homo sapiens) (UniProt Q9UEE5); details: Compound concentration 1000.0 nM
[9] = biological target: Ephrin type-A receptor 7 (Homo sapiens) (UniProt Q15375); details: Compound concentration 1000.0 nM
[10] = biological target: Ephrin type-B receptor 3 (Homo sapiens) (UniProt P54753); details: Compound concentration 1000.0 nM
[11] = biological target: Receptor tyrosine-protein kinase erbB-2 (Homo sapiens) (UniProt P04626); details: Compound concentration 1000.0 nM
[12] = biological target: Mitogen-activated protein kinase 3 (Homo sapiens) (UniProt P27361); details: Compound concentration 1000.0 nM
[13] = biological target: Focal adhesion kinase 1 (Homo sapiens) (UniProt Q05397); details: Compound concentration 1000.0 nM
[14] = test system: Receptor-type tyrosine-protein kinase FLT3 (Homo sapiens), P36888 [UNDEFINED MUTATION]; details: Compound concentration 1000.0 nM
[15] = test system: Receptor-type tyrosine-protein kinase FLT3 (Homo sapiens), P36888 [UNDEFINED MUTATION]; details: Compound concentration 1000.0 nM; remark: listed apart in the source
[16] = biological target: Serine/threonine-protein kinase ICK (Homo sapiens) (UniProt Q9UPZ9); details: Compound concentration 1000.0 nM
[17] = biological target: Insulin receptor-related protein (Homo sapiens) (UniProt P14616); details: Compound concentration 1000.0 nM
[18] = biological target: Interleukin-1 receptor-associated kinase 3 (Homo sapiens) (UniProt Q9Y616); details: Compound concentration 1000.0 nM
[19] = biological target: Tyrosine-protein kinase JAK1 (Homo sapiens) (UniProt P23458); details: Compound concentration 1000.0 nM
[20] = test system: Mast/stem cell growth factor receptor Kit (Homo sapiens), P10721 [D816V]; details: Compound concentration 1000.0 nM
[21] = biological target: Tyrosine-protein kinase Lck (Homo sapiens) (UniProt P06239); details: Compound concentration 1000.0 nM
[22] = test system: Leucine-rich repeat serine/threonine-protein kinase 2 (Homo sapiens), Q5S007 [G2019S]; details: Compound concentration 1000.0 nM
[23] = biological target: Mitogen-activated protein kinase kinase kinase 1 (Homo sapiens) (UniProt Q13233); details: Compound concentration 1000.0 nM
[24] = biological target: Mitogen-activated protein kinase kinase kinase 2 (Homo sapiens) (UniProt Q9Y2U5); details: Compound concentration 1000.0 nM
[25] = biological target: Mitogen-activated protein kinase kinase kinase 3 (Homo sapiens) (UniProt Q99759); details: Compound concentration 1000.0 nM
[26] = biological target: Mitogen-activated protein kinase kinase kinase kinase 3 (Homo sapiens) (UniProt Q8IVH8); details: Compound concentration 1000.0 nM
[27] = biological target: Dual specificity mitogen-activated protein kinase kinase 6 (Homo sapiens) (UniProt P52564); details: Compound concentration 1000.0 nM
[28] = biological target: Maternal embryonic leucine zipper kinase (Homo sapiens) (UniProt Q14680); details: Compound concentration 1000.0 nM
[29] = biological target: Tyrosine-protein kinase Mer (Homo sapiens) (UniProt Q12866); details: Compound concentration 1000.0 nM
[30] = biological target: Mitogen-activated protein kinase kinase kinase 9 (Homo sapiens) (UniProt P80192); details: Compound concentration 1000.0 nM
[31] = biological target: Calcium-dependent protein kinase 1 (Plasmodium falciparum) (UniProt P62344); details: Compound concentration 1000.0 nM
[32] = biological target: cAMP-dependent protein kinase catalytic subunit beta (Homo sapiens) (UniProt P22694); details: Compound concentration 1000.0 nM
[33] = biological target: cGMP-dependent protein kinase 2 (Homo sapiens) (UniProt Q13237); details: Compound concentration 1000.0 nM
[34] = test system: Proto-oncogene tyrosine-protein kinase receptor Ret (Homo sapiens), P07949 [V804L]; details: Compound concentration 1000.0 nM
[35] = biological target: Dual serine/threonine and tyrosine protein kinase (Homo sapiens) (UniProt Q6XUX3); details: Compound concentration 1000.0 nM
[36] = biological target: Rho-associated protein kinase 1 (Homo sapiens) (UniProt Q13464); details: Compound concentration 1000.0 nM
[37] = biological target: Ribosomal protein S6 kinase alpha-4 (Homo sapiens) (UniProt O75676); details: Compound concentration 1000.0 nM
[38] = biological target: SNF-related serine/threonine-protein kinase (Homo sapiens) (UniProt Q9NRH2); details: Compound concentration 1000.0 nM
[39] = biological target: Non-receptor tyrosine-protein kinase TNK1 (Homo sapiens) (UniProt Q13470); details: Compound concentration 1000.0 nM
[40] = biological target: Serine/threonine-protein kinase WNK1 (Homo sapiens) (UniProt Q9H4A3); details: Compound concentration 1000.0 nM
[41] = biological target: Serine/threonine-protein kinase 32A (Homo sapiens) (UniProt Q8WU08); details: Compound concentration 1000.0 nM
[42] = biological target: Mitogen-activated protein kinase kinase kinase 20 (Homo sapiens) (UniProt Q9NYL2); details: Compound concentration 1000.0 nM
[43] = biological target: D(1B) dopamine receptor (Homo sapiens) (UniProt P21918); details: Compound concentration 10.0 uM
[44] = biological target: Sodium-dependent dopamine transporter (Homo sapiens) (UniProt Q01959); details: Compound concentration 10.0 uM
[45] = biological target: Histamine H3 receptor (Homo sapiens) (UniProt Q9Y5N1); details: Compound concentration 10.0 uM

Chain of Receptor-type tyrosine-protein kinase FLT3 (Homo sapiens), P36888 [UNDEFINED MUTATION] (P36888 whole entry, looked up, change not shown): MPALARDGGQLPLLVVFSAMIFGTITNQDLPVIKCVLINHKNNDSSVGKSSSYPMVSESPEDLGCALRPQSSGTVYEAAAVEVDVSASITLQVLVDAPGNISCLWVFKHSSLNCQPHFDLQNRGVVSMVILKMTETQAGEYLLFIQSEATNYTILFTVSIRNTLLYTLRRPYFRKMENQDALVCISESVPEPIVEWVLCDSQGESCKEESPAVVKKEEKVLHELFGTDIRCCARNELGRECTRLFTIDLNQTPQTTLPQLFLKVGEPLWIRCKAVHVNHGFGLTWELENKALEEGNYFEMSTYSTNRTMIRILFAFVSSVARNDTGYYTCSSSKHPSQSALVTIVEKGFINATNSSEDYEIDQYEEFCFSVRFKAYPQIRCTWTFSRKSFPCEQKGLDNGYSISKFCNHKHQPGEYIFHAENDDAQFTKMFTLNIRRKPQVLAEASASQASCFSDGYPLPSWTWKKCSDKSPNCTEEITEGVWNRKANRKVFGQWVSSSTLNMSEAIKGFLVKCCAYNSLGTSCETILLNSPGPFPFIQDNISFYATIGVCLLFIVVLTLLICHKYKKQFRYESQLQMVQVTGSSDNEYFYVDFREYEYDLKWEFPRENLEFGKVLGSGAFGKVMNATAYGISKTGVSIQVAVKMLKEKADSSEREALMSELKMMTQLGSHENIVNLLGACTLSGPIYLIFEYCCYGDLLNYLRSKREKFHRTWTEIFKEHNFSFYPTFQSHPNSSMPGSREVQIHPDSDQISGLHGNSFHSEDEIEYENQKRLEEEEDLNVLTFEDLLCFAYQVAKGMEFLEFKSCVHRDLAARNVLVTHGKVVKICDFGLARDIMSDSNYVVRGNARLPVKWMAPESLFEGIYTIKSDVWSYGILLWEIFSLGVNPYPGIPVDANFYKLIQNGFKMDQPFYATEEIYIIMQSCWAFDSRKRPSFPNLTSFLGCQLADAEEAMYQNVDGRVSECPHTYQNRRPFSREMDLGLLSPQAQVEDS
Chain of Serine/threonine-protein kinase BRSK1 (Homo sapiens) (Q8TDC3 whole entry): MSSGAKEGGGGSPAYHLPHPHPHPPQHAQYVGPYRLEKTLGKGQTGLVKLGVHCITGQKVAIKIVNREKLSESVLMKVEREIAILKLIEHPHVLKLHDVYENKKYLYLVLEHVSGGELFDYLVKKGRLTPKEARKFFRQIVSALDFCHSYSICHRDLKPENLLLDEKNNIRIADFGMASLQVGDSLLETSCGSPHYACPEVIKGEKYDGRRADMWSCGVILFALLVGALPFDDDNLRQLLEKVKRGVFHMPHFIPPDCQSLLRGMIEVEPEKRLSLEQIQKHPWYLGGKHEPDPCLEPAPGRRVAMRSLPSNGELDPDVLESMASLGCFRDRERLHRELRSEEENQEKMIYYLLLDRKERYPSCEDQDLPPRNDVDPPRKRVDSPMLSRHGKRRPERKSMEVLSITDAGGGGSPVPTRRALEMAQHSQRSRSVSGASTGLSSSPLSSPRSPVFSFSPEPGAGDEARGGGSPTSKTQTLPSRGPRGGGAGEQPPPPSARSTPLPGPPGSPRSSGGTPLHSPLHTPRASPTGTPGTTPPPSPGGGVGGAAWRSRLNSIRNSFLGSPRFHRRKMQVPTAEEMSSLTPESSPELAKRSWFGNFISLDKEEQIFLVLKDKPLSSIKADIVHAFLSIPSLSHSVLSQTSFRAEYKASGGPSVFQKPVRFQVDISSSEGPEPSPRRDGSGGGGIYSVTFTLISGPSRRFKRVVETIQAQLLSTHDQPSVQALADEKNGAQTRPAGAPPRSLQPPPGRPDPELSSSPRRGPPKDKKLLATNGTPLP
Chain of Interleukin-1 receptor-associated kinase 3 (Homo sapiens) (Q9Y616 whole entry): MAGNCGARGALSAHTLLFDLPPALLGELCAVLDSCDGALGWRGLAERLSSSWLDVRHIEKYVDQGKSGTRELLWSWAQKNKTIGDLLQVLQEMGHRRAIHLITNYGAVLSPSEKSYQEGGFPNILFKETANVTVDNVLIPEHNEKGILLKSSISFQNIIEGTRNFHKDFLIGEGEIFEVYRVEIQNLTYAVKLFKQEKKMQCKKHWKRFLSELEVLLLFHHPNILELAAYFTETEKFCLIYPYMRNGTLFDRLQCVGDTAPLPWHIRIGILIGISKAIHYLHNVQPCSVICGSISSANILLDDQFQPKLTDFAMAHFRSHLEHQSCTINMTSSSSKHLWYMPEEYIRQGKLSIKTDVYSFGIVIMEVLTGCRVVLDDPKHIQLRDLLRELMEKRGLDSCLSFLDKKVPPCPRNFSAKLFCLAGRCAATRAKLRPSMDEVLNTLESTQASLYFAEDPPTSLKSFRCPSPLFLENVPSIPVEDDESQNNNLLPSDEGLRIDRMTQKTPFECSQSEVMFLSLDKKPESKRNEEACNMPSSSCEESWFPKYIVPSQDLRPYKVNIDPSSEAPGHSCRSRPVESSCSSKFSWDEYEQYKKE
Chain of Mitogen-activated protein kinase kinase kinase kinase 3 (Homo sapiens) (Q8IVH8 whole entry): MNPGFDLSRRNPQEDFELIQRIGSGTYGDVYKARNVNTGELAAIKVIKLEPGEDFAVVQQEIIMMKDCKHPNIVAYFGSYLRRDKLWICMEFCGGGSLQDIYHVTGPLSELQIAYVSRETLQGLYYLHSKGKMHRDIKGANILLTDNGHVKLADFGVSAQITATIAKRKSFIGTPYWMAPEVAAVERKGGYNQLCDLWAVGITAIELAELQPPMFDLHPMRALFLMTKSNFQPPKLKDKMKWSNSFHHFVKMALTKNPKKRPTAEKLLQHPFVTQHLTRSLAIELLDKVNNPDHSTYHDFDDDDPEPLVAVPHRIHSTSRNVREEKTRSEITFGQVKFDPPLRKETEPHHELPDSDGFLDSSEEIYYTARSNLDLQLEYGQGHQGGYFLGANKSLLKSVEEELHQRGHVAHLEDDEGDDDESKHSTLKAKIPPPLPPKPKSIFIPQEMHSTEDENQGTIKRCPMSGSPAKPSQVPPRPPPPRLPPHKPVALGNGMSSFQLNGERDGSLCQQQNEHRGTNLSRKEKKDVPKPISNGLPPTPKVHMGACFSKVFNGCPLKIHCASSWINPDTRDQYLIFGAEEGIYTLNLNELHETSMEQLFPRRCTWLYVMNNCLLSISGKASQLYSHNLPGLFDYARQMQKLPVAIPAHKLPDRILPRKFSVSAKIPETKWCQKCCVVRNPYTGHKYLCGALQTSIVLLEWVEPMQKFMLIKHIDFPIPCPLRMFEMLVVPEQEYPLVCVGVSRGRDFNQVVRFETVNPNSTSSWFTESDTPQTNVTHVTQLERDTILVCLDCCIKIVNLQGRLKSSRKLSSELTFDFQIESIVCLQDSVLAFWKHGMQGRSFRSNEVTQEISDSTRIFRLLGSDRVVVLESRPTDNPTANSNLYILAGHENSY
Chain of Tyrosine-protein kinase ABL1 (Homo sapiens), P00519 [F317I] (P00519 whole entry F317I): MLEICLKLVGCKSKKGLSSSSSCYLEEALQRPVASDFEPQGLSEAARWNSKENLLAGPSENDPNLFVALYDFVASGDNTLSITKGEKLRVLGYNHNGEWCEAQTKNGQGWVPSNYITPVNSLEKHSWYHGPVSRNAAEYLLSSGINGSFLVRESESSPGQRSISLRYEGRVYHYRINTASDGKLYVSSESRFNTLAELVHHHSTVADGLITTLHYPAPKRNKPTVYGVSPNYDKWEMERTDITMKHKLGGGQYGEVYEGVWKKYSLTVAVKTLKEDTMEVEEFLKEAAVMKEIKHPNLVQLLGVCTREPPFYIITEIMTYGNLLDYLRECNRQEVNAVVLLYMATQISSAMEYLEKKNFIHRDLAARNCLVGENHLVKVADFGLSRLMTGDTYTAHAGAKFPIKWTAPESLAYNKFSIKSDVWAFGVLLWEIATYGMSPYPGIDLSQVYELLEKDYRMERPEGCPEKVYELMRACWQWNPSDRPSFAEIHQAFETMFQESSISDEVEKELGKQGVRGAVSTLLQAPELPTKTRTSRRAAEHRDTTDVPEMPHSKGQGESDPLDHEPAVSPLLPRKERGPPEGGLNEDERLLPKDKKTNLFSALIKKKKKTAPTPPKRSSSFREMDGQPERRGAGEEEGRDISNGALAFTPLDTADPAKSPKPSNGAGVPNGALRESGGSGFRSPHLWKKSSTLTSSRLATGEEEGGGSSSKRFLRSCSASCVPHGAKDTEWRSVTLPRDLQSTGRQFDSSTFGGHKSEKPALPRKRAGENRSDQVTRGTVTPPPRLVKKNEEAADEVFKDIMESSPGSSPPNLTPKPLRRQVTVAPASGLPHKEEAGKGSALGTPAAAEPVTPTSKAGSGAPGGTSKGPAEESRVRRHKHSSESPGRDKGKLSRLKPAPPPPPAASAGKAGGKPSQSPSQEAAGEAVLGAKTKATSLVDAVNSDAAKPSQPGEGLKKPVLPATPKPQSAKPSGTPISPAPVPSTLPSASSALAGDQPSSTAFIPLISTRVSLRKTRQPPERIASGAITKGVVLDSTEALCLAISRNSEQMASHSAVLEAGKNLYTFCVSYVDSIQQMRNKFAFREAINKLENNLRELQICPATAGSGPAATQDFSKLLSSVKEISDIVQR
Chain of Serine/threonine-protein kinase 17A (Homo sapiens) (Q9UEE5 whole entry): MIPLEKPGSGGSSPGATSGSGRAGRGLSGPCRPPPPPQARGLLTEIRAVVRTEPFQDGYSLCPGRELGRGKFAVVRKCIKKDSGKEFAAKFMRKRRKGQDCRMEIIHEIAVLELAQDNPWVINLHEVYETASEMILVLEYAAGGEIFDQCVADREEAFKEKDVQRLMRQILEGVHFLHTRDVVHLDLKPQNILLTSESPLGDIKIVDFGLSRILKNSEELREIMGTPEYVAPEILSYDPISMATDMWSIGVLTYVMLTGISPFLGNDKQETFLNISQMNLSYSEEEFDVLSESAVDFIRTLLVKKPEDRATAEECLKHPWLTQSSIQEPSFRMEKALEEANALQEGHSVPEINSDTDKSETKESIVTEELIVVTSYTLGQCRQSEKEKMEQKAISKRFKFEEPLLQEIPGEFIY
Chain of Tyrosine-protein kinase ABL1 (Homo sapiens) (P00519 whole entry): as the sequence (P00519 whole entry F317I) above, with I317F counted along it

O=C1NC(c2ccccn2)Sc2ccccc21 (stereo not given) [BTZO-4]
inactive: residual activity [1] 88% | residual activity [2] 69% | residual activity [3] 99% | residual activity [4] 100% | residual activity [5] 100% | residual activity [6] 76% | residual activity [7] 80% | residual activity [8] 86% | residual activity [9] 72% | residual activity [10] 80% | residual activity [11] 71% | residual activity [12] 74% | residual activity [13] 79% | residual activity [14] 100% | residual activity [15] 100% | residual activity [16] 86% | residual activity [17] 75% | residual activity [18] 87% | residual activity [19] 69% | residual activity [20] 100% | residual activity [21] 80% | residual activity [22] 81% | residual activity [23] 55% | residual activity [24] 82% | residual activity [25] 93% | residual activity [26] 100% | residual activity [27] 100% | residual activity [28] 81% | residual activity [29] 75% | residual activity [30] 88% | residual activity [31] 57% | residual activity [32] 97% | residual activity [33] 90% | residual activity [34] 69% | residual activity [35] 92% | residual activity [36] 82% | residual activity [37] 74% | residual activity [38] 94% | residual activity [39] 55% | residual activity [40] 91% | residual activity [41] 78% | residual activity [42] 100% | inhibition [43] 11.2% | inhibition [44] -2.05% | inhibition [45] 8.1%

O=c1nc(-c2ccccn2)sc2ccccc12 [BTZO-1]
inactive: residual activity [1] 91% | residual activity [2] 93% | residual activity [3] 100% | residual activity [4] 100% | residual activity [5] 98% | residual activity [6] 91% | residual activity [7] 80% | residual activity [8] 100% | residual activity [9] 80% | residual activity [10] 100% | residual activity [11] 65% | residual activity [12] 80% | residual activity [13] 90% | residual activity [14] 100% | residual activity [15] 100% | residual activity [16] 83% | residual activity [17] 86% | residual activity [18] 82% | residual activity [19] 86% | residual activity [20] 100% | residual activity [21] 95% | residual activity [22] 92% | residual activity [23] 65% | residual activity [24] 92% | residual activity [25] 77% | residual activity [26] 90% | residual activity [27] 100% | residual activity [28] 82% | residual activity [29] 82% | residual activity [30] 85% | residual activity [31] 77% | residual activity [32] 92% | residual activity [33] 96% | residual activity [34] 70% | residual activity [35] 88% | residual activity [36] 100% | residual activity [37] 80% | residual activity [38] 100% | residual activity [39] 59% | residual activity [40] 100% | residual activity [41] 100% | residual activity [42] 87% | inhibition [43] 21.5% | inhibition [44] -3.83% | inhibition [45] 2%
